ChEMBL document CHEMBL1155147, “Interdomain loop mutation Asp190Cys of the tetracycline efflux transporter TetA(B) decreases affinity for substrate” (2007)
Positions count from the first letter of the chain named. Names and notes keep the numbering of the source. Values after ≈ are worked out from the molar mass of the structure shown.

B1: Tetracycline resistance protein, class B (Escherichia coli), P02980 (protein)
chain: MNSSTKIALVITLLDAMGIGLIMPVLPTLLREFIASEDIANHFGVLLALYALMQVIFAPWLGKMSDRFGRRPVLLLSLIGASLDYLLLAFSSALWMLYLGRLLSGITGATGAVAASVIADTTSASQRVKWFGWLGASFGLGLIAGPIIGGFAGEISPHSPFFIAALLNIVTFLVVMFWFRETKNTRDNTDTEVGVETQSNSVYITLFKTMPILLIIYFSAQLIGQIPATVWVLFTENRFGWNSMMVGFSLAGLGLLHSVFQAFVAGRIATKWGEKTAVLLGFIADSSAFAFLAFISEGWLVFPVLILLAGGGIALPALQGVMSIQTKSHQQGALQGLLVSLTNATGVIGPLLFAVIYNHSLPIWDGWIWIIGLAFYCIIILLSMTFMLTPQAQGSKQETSA
B2: Tetracycline resistance protein, class B (Escherichia coli), P02980 D190C (protein)
chain: B1 chain with D190C

Key:
Escherichia coli [1] = assay: Antibacterial activity against intact Escherichia coli DH5alpha expressing wild-type tetracycline efflux transporter TetA(B) gene; type: functional
Escherichia coli [2] = assay: Antibacterial activity against intact Escherichia coli DH5alpha expressing tetracycline efflux transporter TetA(B) Asp190Cys mutant gene; type: functional
Escherichia coli [3] = assay: Antibacterial activity against intact Escherichia coli DH5alpha; type: functional
[4] = substrate: CN(C)[C@@H]1C(O)=C(C(N)=O)C(=O)[C@@]2(O)C(O)=C3C(=O)c4c(O)cccc4[C@@](C)(O)[C@H]3C[C@@H]12; assay: Activity of tetracycline efflux transporter TetA(B) in Escherichia coli DH5alpha membrane vesicles assessed as [3H]tetracycline uptake; type: cell membranes
[5] = substrate: CN(C)[C@@H]1C(O)=C(C(N)=O)C(=O)[C@@]2(O)C(O)=C3C(=O)c4c(O)cccc4[C@@](C)(O)[C@H]3C[C@@H]12; assay: Activity of tetracycline efflux transporter TetA(B) in Escherichia coli DH5alpha membrane vesicles assessed as [3H]tetracycline uptake per mg of protein; type: cell membranes
[6] = substrate: CN(C)[C@@H]1C(O)=C(C(N)=O)C(=O)[C@@]2(O)C(O)=C3C(=O)c4c(O)cccc4[C@@](C)(O)[C@H]3C[C@@H]12; assay: Activity of tetracycline efflux transporter TetA(B) Asp190Cys mutant in Escherichia coli DH5alpha membrane vesicles assessed as [3H]tetracycline uptake; type: cell membranes
[7] = substrate: CN(C)[C@@H]1C(O)=C(C(N)=O)C(=O)[C@@]2(O)C(O)=C3C(=O)c4c(O)cccc4[C@@](C)(O)[C@H]3C[C@@H]12; assay: Activity of tetracycline efflux transporter TetA(B) Asp190Cys mutant in Escherichia coli DH5alpha membrane vesicles assessed as [3H]tetracycline uptake per mg of protein; type: cell membranes

Molecule | MIC (Escherichia coli [1]) [µg/mL] | MIC (Escherichia coli [2]) [µg/mL] | MIC (Escherichia coli [3]) [µg/mL] | Km [4] [µM] | Vmax [5] [pmol/min] | Km [6] [µM] | Vmax [7] [pmol/min]
C[C@H]1c2cccc(O)c2C(=O)C2=C(O)[C@]3(O)C(=O)C(C(N)=O)=C(O)[C@@H](N(C)C)[C@@H]3[C@@H](O)[C@@H]21.O [DOXYCYCLINE] | 32 | 14 | 1.25 | – | – | – | –
CN(C)[C@@H]1C(O)=C(C(N)=O)C(=O)[C@@]2(O)C(O)=C3C(=O)c4c(O)cccc4[C@@](C)(O)[C@H]3C[C@@H]12 [TETRACYCLINE] | 128 (≈ 288 µM) | 11 (≈ 24.8 µM) | 0.75 (≈ 1.69 µM) | – | – | – | –
B1 | – | – | – | 22 | 1270 | – | –
B2 | – | – | – | – | – | 83 | 1330
